Measured values taken from patent US20210395653A1, “COMPOSITIONS FOR TREATMENT AND METHODS FOR MAKING AND USING THE SAME” (ASP Global Manufacturing GmbH, priority 2018, published 2021).

Test: Solubility of added 5% CHG in commercial detergent compositions
Format: physicochemical

N=C(NCCCCCCNC(=N)NC(=N)Nc1ccc(Cl)cc1)NC(=N)Nc1ccc(Cl)cc1.O=C(O)[C@H](O)[C@@H](O)[C@H](O)[C@H](O)CO.O=C(O)[C@H](O)[C@@H](O)[C@H](O)[C@H](O)CO [CHG, chlorhexidine gluconate]
insoluble: Solubility of CHG in detergent composition C2 (5% CHG added to C2) | Solubility of CHG in detergent composition C3 (5% CHG added to C3) | Solubility of CHG in detergent composition C6 (5% CHG added to C6)
